Converted amounts (≈) assume the structure as drawn.
system: M. smegmatis "non-culturable" cells; assay: not given; format: cell-based, Mycobacterium smegmatis; settings: MPN assay

| SMILES | concentrations active in suppressing resuscitation of M. smegmatis [µg/mL] |
| --- | --- |
| COC(=O)c1ccc(SC#N)c([N+](=O)[O-])c1 [IX, 3-Nitro-4-thiocyanatobenzoic acid methyl ester] | 0.1 to 1 |

same assay, conditions: inhibitors at 1 µg/ml, MPN assay, 2 weeks at 37°C

| SMILES | effect on resuscitation of M. smegmatis "non-culturable" cells |
| --- | --- |
| N#CSc1ccc(C(=O)O)cc1[N+](=O)[O-] [VIII, 3-Nitro-4-thiocyanatobenzoic acid] | failure |

system: Micrococcus luteus; assay: microbe, parasite or virus in culture; format: cell-based; settings: Micrococcus luteus; lowest concentration which suppresses growth; determined during 24 hours; NI = no inhibition was observed

| SMILES | MIC [µg/mL] |
| --- | --- |
| COC(=O)c1ccc(SC#N)c([N+](=O)[O-])c1 [IX, 3-Nitro-4-thiocyanatobenzoic acid methyl ester] | 5 to 10 (≈ 21 to 42 µM) |
| N#CSc1ccc(C#N)cc1[N+](=O)[O-] [V, 3-Nitro-4-thiocyanobenzonitryl] | 1 to 5 (≈ 4.87 to 24.4 µM) |

same assay, conditions: NB liquid medium

| SMILES | effect on M. luteus growth |
| --- | --- |
| N#CSc1ccc(C(=O)O)cc1[N+](=O)[O-] [VIII, 3-Nitro-4-thiocyanatobenzoic acid] | had no effect on M. luteus growth |

system: M. smegmatis; assay: not given; format: cell-based, Mycobacterium smegmatis; settings: at 0.1–1 µg/ml (not shown)

| SMILES | growth of active cells of M. smegmatis |
| --- | --- |
| COC(=O)c1ccc(SC#N)c([N+](=O)[O-])c1 [IX, 3-Nitro-4-thiocyanatobenzoic acid methyl ester] | did not inhibit growth |

target: ΔDUFRpf B (Mycobacterium tuberculosis, UniProt P9WG29); assay: not given; format: binding, M. tuberculosis; settings: fluorescence studies
Sequence (P9WG29 whole entry, looked up, stated change not applied): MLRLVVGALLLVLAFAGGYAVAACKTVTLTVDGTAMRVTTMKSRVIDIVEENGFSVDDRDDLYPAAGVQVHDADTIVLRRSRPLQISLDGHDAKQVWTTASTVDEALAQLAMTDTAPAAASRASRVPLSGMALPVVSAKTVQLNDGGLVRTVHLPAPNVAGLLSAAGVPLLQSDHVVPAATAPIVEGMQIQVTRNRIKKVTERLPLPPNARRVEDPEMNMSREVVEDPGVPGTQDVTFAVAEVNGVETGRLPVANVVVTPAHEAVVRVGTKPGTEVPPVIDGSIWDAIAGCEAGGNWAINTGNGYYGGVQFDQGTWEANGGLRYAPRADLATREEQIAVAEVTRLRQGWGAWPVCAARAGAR

| SMILES | interaction with the buried tryptophanes of ΔDUFRpfB |
| --- | --- |
| N#CSc1ccc(C(=O)O)cc1[N+](=O)[O-] [VIII, 3-Nitro-4-thiocyanatobenzoic acid] | doesn't interact with the buried tryptophanes |

system: M. tuberculosis "non-culturable" cells; assay: not given; format: cell-based, Mycobacterium tuberculosis; settings: 10 µg/ml, MPN assay, versus untreated resuscitating cells

| SMILES | effect on resuscitation of M. tuberculosis "non-culturable" cells |
| --- | --- |
| COC(=O)c1ccc(SC#N)c([N+](=O)[O-])c1 [IX, 3-Nitro-4-thiocyanatobenzoic acid methyl ester] | increased time which need for developing of visible growth in the MPN assay and decreased the final values of MPN |
| N#CSc1ccc(C(=O)O)cc1[N+](=O)[O-] [VIII, 3-Nitro-4-thiocyanatobenzoic acid] | had no influence on the resuscitation kinetics |

same assay, conditions: inhibitor 10 µg/ml, time 0 days

| SMILES | MPN, logarithmic transformation of cell concentration (cells/ml) |
| --- | --- |
| COC(=O)c1ccc(SC#N)c([N+](=O)[O-])c1 [IX, 3-Nitro-4-thiocyanatobenzoic acid methyl ester] | 3.48 |
| N#CSc1ccc(C#N)cc1[N+](=O)[O-] [V, 3-Nitro-4-thiocyanobenzonitryl] | 3.48 |

same assay, conditions: inhibitor 10 µg/ml, time 14 days

| SMILES | MPN, logarithmic transformation of cell concentration (cells/ml) |
| --- | --- |
| COC(=O)c1ccc(SC#N)c([N+](=O)[O-])c1 [IX, 3-Nitro-4-thiocyanatobenzoic acid methyl ester] | 3.48 |
| N#CSc1ccc(C#N)cc1[N+](=O)[O-] [V, 3-Nitro-4-thiocyanobenzonitryl] | 3.48 |

same assay, conditions: inhibitor 10 µg/ml, time 19 days

| SMILES | MPN, logarithmic transformation of cell concentration (cells/ml) |
| --- | --- |
| COC(=O)c1ccc(SC#N)c([N+](=O)[O-])c1 [IX, 3-Nitro-4-thiocyanatobenzoic acid methyl ester] | 3.48 |
| N#CSc1ccc(C#N)cc1[N+](=O)[O-] [V, 3-Nitro-4-thiocyanobenzonitryl] | 3.48 |

same assay, conditions: inhibitor 10 µg/ml, time 21 days

| SMILES | MPN, logarithmic transformation of cell concentration (cells/ml) |
| --- | --- |
| COC(=O)c1ccc(SC#N)c([N+](=O)[O-])c1 [IX, 3-Nitro-4-thiocyanatobenzoic acid methyl ester] | 3.56 |
| N#CSc1ccc(C#N)cc1[N+](=O)[O-] [V, 3-Nitro-4-thiocyanobenzonitryl] | 3.48 |

same assay, conditions: inhibitor 10 µg/ml, time 23 days

| SMILES | MPN, logarithmic transformation of cell concentration (cells/ml) |
| --- | --- |
| COC(=O)c1ccc(SC#N)c([N+](=O)[O-])c1 [IX, 3-Nitro-4-thiocyanatobenzoic acid methyl ester] | 3.96 |
| N#CSc1ccc(C#N)cc1[N+](=O)[O-] [V, 3-Nitro-4-thiocyanobenzonitryl] | 3.48 |

same assay, conditions: inhibitor 10 µg/ml, time 27 days

| SMILES | MPN, logarithmic transformation of cell concentration (cells/ml) |
| --- | --- |
| COC(=O)c1ccc(SC#N)c([N+](=O)[O-])c1 [IX, 3-Nitro-4-thiocyanatobenzoic acid methyl ester] | 4.32 |
| N#CSc1ccc(C#N)cc1[N+](=O)[O-] [V, 3-Nitro-4-thiocyanobenzonitryl] | 3.86 |

same assay, conditions: inhibitor 10 µg/ml, time 30 days

| SMILES | MPN, logarithmic transformation of cell concentration (cells/ml) |
| --- | --- |
| COC(=O)c1ccc(SC#N)c([N+](=O)[O-])c1 [IX, 3-Nitro-4-thiocyanatobenzoic acid methyl ester] | 5.66 |
| N#CSc1ccc(C#N)cc1[N+](=O)[O-] [V, 3-Nitro-4-thiocyanobenzonitryl] | 4.30 |

same assay, conditions: inhibitor 10 µg/ml, time 33 days

| SMILES | MPN, logarithmic transformation of cell concentration (cells/ml) |
| --- | --- |
| COC(=O)c1ccc(SC#N)c([N+](=O)[O-])c1 [IX, 3-Nitro-4-thiocyanatobenzoic acid methyl ester] | 5.66 |
| N#CSc1ccc(C#N)cc1[N+](=O)[O-] [V, 3-Nitro-4-thiocyanobenzonitryl] | 5.66 |

same assay, conditions: inhibitor 10 µg/ml, time 36 days

| SMILES | MPN, logarithmic transformation of cell concentration (cells/ml) |
| --- | --- |
| COC(=O)c1ccc(SC#N)c([N+](=O)[O-])c1 [IX, 3-Nitro-4-thiocyanatobenzoic acid methyl ester] | 5.66 |
| N#CSc1ccc(C#N)cc1[N+](=O)[O-] [V, 3-Nitro-4-thiocyanobenzonitryl] | 5.66 |

same assay, conditions: inhibitor 10 µg/ml, time 40 days

| SMILES | MPN, logarithmic transformation of cell concentration (cells/ml) |
| --- | --- |
| COC(=O)c1ccc(SC#N)c([N+](=O)[O-])c1 [IX, 3-Nitro-4-thiocyanatobenzoic acid methyl ester] | 5.66 |
| N#CSc1ccc(C#N)cc1[N+](=O)[O-] [V, 3-Nitro-4-thiocyanobenzonitryl] | 5.66 |

system: not given; assay: not given; settings: not given

| SMILES | melting point [°C] |
| --- | --- |
| N#CSc1ccc(C#N)cc1[N+](=O)[O-] [V, 3-Nitro-4-thiocyanobenzonitryl] | 143 to 145 |
| N#CSc1ccc(C(=O)O)cc1[N+](=O)[O-] [VIII, 3-Nitro-4-thiocyanatobenzoic acid] | 220 to 224 |

target: T1, Rpf Sm (Micrococcus luteus, UniProt O86308); assay: Muralytic activity of Rpf, 4-MUF-3-NAG hydrolysis; format: biochemical, M. luteus; settings: not given
T1 construct: His-tag (inferred from the pET19b vector and the Ni2+-chelation purification); made in house; host or cells: E. coli HSM174 (DE3)
T1 sequence (O86308 42-134): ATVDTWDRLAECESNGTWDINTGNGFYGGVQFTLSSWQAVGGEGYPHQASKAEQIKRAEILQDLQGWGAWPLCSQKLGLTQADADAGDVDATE
Procedure: The truncated form of M.luteus Rpf (RpfSm) was used for the analysis. The truncated protein contained conserved Rpf domain and additional 20 amino acids of the gene product, corresponding to the following amino acid sequence:
To determine a muralytic activity of the recombinant Rpfs', 4-methylumbelliferyl-β-D-N, N′, N″-triacetylchitotrioside (4-MUF-3-NAG) (“Sigma”, Germany) was applied. […] A number of experiments were performed in the presence of NPT compounds, in concentration range of 0.5–10 µg/ml. After 3 hours of incubation at 37°C, 2 µl of 10 M NaOH was added and the samples were frozen and kept at −20°C. […] The intensity of fluorescence was detected by the RF-5301PC fluorimeter (“SHIMADZU”, Japan) using excitation wavelength of 364 nm and a read-out of 448 nm.

| SMILES | IC50 [µM] |
| --- | --- |
| COC(=O)c1ccc(SC#N)c([N+](=O)[O-])c1 [IX, 3-Nitro-4-thiocyanatobenzoic acid methyl ester] | 23.5 |
| N#CSc1ccc(C#N)cc1[N+](=O)[O-] [V, 3-Nitro-4-thiocyanobenzonitryl] | 25.3 |
